Measurements taken from ChEMBL document CHEMBL4152377, “Design and Activity of Specific Hypoxia-Inducible Factor-2α (HIF-2α) Inhibitors for the Treatment of Clear Cell Renal Cell Carcinoma: Discovery of Clinical Candidate ( S)-3-((2,2-Difluoro-1-hydroxy-7-(methylsulfonyl)-2,3-dihydro-1 H-inden-4-yl)oxy)-5-fluorobenzonitrile (PT2385)” (J Med Chem, 2018).
Converted amounts (≈) assume the structure as drawn. The source made the active and inactive calls. The calls are words filed in the database; no cut-off is given here.

How the values were obtained:
[1] = Protein binding in mouse plasma at 10 uM after 4 hrs by LC-MS/MS analysis; format: ADME, cell-free; settings: read-out: PPB (converted)
[2] = Plasma concentration in mouse after 12 hrs; format: ADME, cell-free
[3] = Intrinsic clearance in mouse liver microsomes at 1 uM measured up to 30 mins by LC-MS/MS analysis; format: ADME, microsome; settings: read-out: CLH
[4] = Apparent permeability across apical to basolateral side in MDCK-MDR1 cells at 1 uM after 1 hr by LC/MS/MS analysis; format: ADME, cell-based, Canis lupus familiaris; settings: dog
[5] = AUCt in CD1 mouse at 10 mg/kg, po by UPLC analysis; format: ADME, organism-based; settings: in vivo
[6] = Volume of distribution at steady state in CD1 mouse at 3 mg/kg, iv by UPLC analysis; format: ADME, organism-based; settings: in vivo, read-out: Vdss
[7] = Oral bioavailability in CD1 mouse at 10 mg/kg by UPLC analysis; format: ADME, organism-based; settings: in vivo
[8] = Volume of distribution at steady state in Sprague-Dawley rat at 3 mg/kg, iv by UPLC analysis; format: ADME, organism-based; settings: in vivo, read-out: Vdss
[9] = Volume of distribution at steady state in Beagle dog at 3 mg/kg, iv by UPLC analysis; format: ADME, organism-based, Canis lupus familiaris; settings: in vivo, read-out: Vdss
[10] = Half life in Beagle dog at 10 mg/kg, po via gavage by UPLC analysis; format: ADME, organism-based, Canis lupus familiaris; settings: in vivo
[11] = Oral bioavailability in Sprague-Dawley rat at 10 mg/kg administered via gavage by UPLC analysis; format: ADME, organism-based; settings: in vivo
[12] = Thermodynamic solubility of the compound in phosphate buffer at pH 7.4 after 24 hrs by HPLC-UV analysis; format: physicochemical; settings: read-out: Therm_solubility
[13] = Intrinsic clearance in human liver microsomes at 1 uM measured up to 30 mins by LC-MS/MS analysis; format: ADME, microsome; settings: read-out: CLH
[14] = Intrinsic clearance in dog liver microsomes at 1 uM measured up to 30 mins by LC-MS/MS analysis; format: ADME, Canis lupus familiaris, microsome; settings: read-out: CLH
[15] = Intrinsic clearance in monkey liver microsomes at 1 uM measured up to 30 mins by LC-MS/MS analysis; format: ADME, Macaca mulatta, microsome; settings: rhesus monkey, read-out: CLH
[16] = target: T1, Cytochrome P450 1A2 (Homo sapiens, UniProt P05177); assay: Inhibition of CYP1A2 in human liver microsomes using phenacetin after 10 mins in presence of NADPH by LC-MS/MS analysis; format: ADME
T1 sequence (P05177 whole entry): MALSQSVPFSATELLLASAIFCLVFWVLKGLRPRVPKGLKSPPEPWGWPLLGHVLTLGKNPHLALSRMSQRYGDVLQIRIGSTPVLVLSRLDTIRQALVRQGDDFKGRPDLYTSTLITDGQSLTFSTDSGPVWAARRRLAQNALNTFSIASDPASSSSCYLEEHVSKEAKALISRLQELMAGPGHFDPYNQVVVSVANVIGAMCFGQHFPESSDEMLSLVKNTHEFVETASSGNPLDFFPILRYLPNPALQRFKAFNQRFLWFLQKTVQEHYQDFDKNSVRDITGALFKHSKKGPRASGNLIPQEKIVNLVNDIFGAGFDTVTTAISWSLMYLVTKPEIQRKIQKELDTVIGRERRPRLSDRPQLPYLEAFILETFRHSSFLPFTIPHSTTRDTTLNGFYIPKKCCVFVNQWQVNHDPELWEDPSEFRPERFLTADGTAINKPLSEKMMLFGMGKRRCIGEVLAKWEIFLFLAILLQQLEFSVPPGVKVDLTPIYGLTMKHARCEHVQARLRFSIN

[17] = target: T2, Cytochrome P450 2C8 (Homo sapiens, UniProt P10632); assay: Inhibition of CYP2C8 in human liver microsomes using amodiaquine as substrate after 10 mins in presence of NADPH by LC-MS/MS analysis; format: ADME
T2 sequence (P10632 whole entry): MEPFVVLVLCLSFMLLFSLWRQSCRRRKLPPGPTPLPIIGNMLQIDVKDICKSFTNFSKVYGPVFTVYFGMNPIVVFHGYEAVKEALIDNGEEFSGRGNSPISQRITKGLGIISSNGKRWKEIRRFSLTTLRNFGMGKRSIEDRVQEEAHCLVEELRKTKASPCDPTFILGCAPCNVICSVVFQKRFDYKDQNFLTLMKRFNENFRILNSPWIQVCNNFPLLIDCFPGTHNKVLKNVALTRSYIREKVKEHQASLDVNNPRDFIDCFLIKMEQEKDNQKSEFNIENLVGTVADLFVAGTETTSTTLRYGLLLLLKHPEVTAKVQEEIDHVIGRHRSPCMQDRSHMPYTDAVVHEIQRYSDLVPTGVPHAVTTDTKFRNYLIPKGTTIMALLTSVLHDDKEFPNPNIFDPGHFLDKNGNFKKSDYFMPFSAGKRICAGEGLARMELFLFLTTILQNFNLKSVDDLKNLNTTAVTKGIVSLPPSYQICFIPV

[18] = target: Cytochrome P450 2D6 (Homo sapiens, UniProt P10635); assay: Inhibition of CYP2D6 in human liver microsomes using dextromethorphan as substrate after 10 mins in presence of NADPH by LC-MS/MS analysis; format: ADME
Chain of Cytochrome P450 2D6 (P10635 whole entry): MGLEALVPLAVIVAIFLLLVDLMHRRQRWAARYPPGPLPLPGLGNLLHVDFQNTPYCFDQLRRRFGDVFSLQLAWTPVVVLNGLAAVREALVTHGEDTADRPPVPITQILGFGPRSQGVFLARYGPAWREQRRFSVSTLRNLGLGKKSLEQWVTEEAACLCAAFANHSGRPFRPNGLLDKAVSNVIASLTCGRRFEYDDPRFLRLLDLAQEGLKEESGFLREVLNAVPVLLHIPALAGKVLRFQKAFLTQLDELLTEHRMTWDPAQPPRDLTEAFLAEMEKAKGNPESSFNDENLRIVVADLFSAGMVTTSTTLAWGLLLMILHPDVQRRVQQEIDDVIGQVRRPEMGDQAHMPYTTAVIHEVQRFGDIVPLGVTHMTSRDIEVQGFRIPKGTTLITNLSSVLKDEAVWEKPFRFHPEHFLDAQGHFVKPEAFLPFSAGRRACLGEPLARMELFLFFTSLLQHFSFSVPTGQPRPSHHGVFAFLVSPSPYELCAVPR

[19] = target: Cytochrome P450 3A4 (Homo sapiens, UniProt P08684); assay: Inhibition of CYP3A4 in human liver microsomes using midazolam as substrate after 10 mins in presence of NADPH by LC-MS/MS analysis; format: ADME
Chain of Cytochrome P450 3A4 (P08684 whole entry): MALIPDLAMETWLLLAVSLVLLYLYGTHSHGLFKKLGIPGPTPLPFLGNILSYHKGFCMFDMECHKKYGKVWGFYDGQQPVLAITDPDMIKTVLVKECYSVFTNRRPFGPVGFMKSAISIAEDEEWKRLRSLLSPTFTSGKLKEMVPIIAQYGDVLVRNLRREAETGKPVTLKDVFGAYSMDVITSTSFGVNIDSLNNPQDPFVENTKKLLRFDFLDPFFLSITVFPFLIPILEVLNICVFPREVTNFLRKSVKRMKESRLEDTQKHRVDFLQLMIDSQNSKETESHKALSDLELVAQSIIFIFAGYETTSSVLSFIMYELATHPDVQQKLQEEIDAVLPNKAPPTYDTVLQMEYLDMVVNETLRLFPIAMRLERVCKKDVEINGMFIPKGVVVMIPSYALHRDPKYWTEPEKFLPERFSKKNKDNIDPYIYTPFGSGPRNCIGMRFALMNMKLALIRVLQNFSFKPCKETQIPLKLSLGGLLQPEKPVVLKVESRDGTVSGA

[20] = Protein binding in human plasma at 10 uM after 4 hrs by LC-MS/MS analysis; format: ADME, cell-free; settings: read-out: PPB (converted)
[21] = Protein binding in rat plasma at 10 uM after 4 hrs by LC-MS/MS analysis; format: ADME, cell-free; settings: read-out: PPB (converted)
[22] = Protein binding in dog plasma at 10 uM after 4 hrs by LC-MS/MS analysis; format: ADME, cell-free, Canis lupus familiaris; settings: read-out: PPB (converted)
[23] = Protein binding in monkey plasma at 10 uM after 4 hrs by LC-MS/MS analysis; format: ADME, cell-free, Macaca mulatta; settings: rhesus monkey, read-out: PPB (converted)
[24] = system: Mus musculus; assay: In vivo inhibition of HIF-2alpha in SCID/Biege mouse xenografted with human 786-O cells assessed as reduction in CCND1 mRNA levels at 10 mg/kg, po bid for 3 days and measured after 12 hrs post last dose by qRT-PCR analysis; format: functional, organism-based
[25] = system: Mus musculus; assay: In vivo inhibition of HIF-2alpha in SCID/Biege mouse xenografted with human 786-O cells assessed as reduction in VEGFA mRNA levels at 10 mg/kg, po bid for 3 days and measured after 12 hrs post last dose by qRT-PCR analysis; format: functional, organism-based
[26] = system: Mus musculus; assay: Toxicity in SCID/Biege mouse xenografted with human 786-O cells assessed as mortality at 10 mg/kg, po bid for 21 days; format: organism-based; settings: in vivo, 504 h
[27] = system: Mus musculus; assay: Toxicity in SCID/Biege mouse xenografted with human 786-O cells assessed as effect on body weight at 10 mg/kg, po bid for 21 days; format: organism-based; settings: in vivo, 504 h
[28] = target: hERG (KCNH2) (Homo sapiens, UniProt Q12809); assay: Inhibition of human ERG expressed in mammalian cells at 10 uM after 3 mins by QPatch clamp assay; format: cell-based; settings: mammalian cells that express human ERG
Chain of hERG (KCNH2) (Q12809 whole entry): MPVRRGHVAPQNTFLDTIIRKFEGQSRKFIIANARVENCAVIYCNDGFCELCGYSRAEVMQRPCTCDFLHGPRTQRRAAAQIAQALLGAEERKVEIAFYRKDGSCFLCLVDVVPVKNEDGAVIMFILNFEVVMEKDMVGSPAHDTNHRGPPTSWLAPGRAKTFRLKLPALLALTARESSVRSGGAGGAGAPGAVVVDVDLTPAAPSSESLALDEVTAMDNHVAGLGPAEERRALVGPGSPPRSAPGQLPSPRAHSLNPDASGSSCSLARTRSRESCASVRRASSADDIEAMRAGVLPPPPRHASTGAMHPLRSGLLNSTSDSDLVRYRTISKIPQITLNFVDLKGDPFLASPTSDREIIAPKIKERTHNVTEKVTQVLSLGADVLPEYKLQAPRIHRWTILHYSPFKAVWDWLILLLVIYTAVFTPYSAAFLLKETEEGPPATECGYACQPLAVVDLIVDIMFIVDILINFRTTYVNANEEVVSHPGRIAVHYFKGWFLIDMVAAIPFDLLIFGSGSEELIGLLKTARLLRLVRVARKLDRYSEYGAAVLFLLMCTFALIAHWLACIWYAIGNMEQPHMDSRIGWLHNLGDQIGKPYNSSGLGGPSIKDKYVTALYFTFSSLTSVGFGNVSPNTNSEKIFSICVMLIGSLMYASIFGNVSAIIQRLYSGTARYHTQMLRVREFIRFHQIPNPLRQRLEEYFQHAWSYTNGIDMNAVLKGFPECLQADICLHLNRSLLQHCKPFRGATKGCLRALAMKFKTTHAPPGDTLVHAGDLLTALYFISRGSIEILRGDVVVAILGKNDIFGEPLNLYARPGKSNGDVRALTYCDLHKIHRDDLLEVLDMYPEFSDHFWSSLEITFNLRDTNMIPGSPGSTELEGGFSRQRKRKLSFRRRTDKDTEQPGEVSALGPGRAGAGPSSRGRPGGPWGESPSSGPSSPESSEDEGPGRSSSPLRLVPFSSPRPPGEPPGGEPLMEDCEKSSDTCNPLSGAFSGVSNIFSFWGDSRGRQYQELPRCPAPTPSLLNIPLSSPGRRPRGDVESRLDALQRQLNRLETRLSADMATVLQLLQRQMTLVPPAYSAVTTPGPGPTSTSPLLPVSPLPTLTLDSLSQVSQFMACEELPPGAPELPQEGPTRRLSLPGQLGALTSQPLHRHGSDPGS

[29] = system: 786-0; assay: In vivo inhibition of HIF-2alpha in SCID/Biege mouse xenografted with human 786-O cells assessed as reduction in tumor derived VEGFA protein levels at 10 mg/kg, po bid for 3 days and measured after 12 hrs post last dose by ELISA; format: functional, organism-based

Row | SMILES | fraction unbound at 4 h, 10 µM [1] | concentration at 12 h [2] [nM] | CLint scaled at 1 µM [3] [mL/min/kg] | Papp A→B at 1 h, 1 µM [4] [×10⁻⁶ cm/s] | AUC(0-t) [5] [µM·h] | Vd [6] [L/kg] | bioavailability [7] [%] | Vd [8] [L/kg] | Vd [9] [L/kg] | half-life [10] [h] | bioavailability [11] [%] | solubility thermodynamic at 24 h [12] [µM] | CLint scaled at 1 µM [13] [mL/min/kg] | CLint scaled at 1 µM [14] [mL/min/kg] | CLint scaled at 1 µM [15] [mL/min/kg] | IC50 [16] [µM] | IC50 [17] [µM] | IC50 [18] [µM] | IC50 [19] [µM] | fraction unbound at 4 h, 10 µM [20] | further results
1 | N#Cc1cc(F)cc(Oc2ccc3c(c2C(F)F)[C@@H](O)C(F)(F)S3(=O)=O)c1 | 0.11 | 220 | 5.9 | 2.6 | 6.1 | 9.5 | 110 | 3.5 | 3.1 | 6.7 | 36 | 126 (≈ 51.1 µg/mL) | < 3 | < 5 | < 4 | > 50 | > 50 | > 50 | 13.3 | 0.37 | fraction unbound at 4 h, 10 µM [21]: 0.15; fraction unbound at 4 h, 10 µM [22]: 0.18; fraction unbound at 4 h, 10 µM [23]: 0.38; inhibition [24]: Active; inhibition [25]: Active; Activity [26]: Non-Toxic; Activity [27]: Non-Toxic; inhibition at 0.05 h, 10 µM [28]: 17%; inhibition [29]: Active
2 | CS(=O)(=O)c1ccc(Oc2cc(F)cc(C#N)c2)c2c1[C@H](O)C(F)(F)C2 | 0.26 | 460 | 19.9 | 2.98 | 16.4 | 7 | 110 | 6.24 | 8.6 | 11 | 40 | 59 (≈ 22.6 µg/mL) | 4.7 | < 5 | 5.4 | > 50 | > 50 | > 50 | > 50 | 0.21 | fraction unbound at 4 h, 10 µM [21]: 0.29; fraction unbound at 4 h, 10 µM [22]: 0.25; fraction unbound at 4 h, 10 µM [23]: 0.26; inhibition [24]: Active; inhibition [25]: Active; Activity [26]: Non-Toxic; Activity [27]: Non-Toxic; inhibition at 0.05 h, 10 µM [28]: 8.2%; inhibition [29]: Active
